For 16 molecules, EC50 results are on record in patent US20240360114A1 (SIRONAX LTD., priority 2021, published 2024).

pEC50: −log10 of the molar value.

The subject of one assay is HT-1080 cells. In words: HT-1080 cell viability assay (ferroptosis induced by RSL3, Cell Titer-Glo). It is filed as cell-based. The note with it: Homo sapiens, HT-1080, 20 h, ferroptosis inducer RSL3, 20 hours, ferroptosis inhibitory activity, Table 2. Put shortly:
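EC50 fitted by sigmoidal dose-response regression on luminescent viability data normalized to untreated cells. Compounds ran as a 10-point, 3-fold series from 1.1 μM alongside RSL3 for 20 hours, after overnight seeding.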
Background: ATP-based viability assays read luminescence as a measure of living cells.
One may read the pEC50 as the negative decadic logarithm of the EC50, by convention in mol/L. Read a low pEC50 as a high EC50. `CC(C)(C)c1ccc(NCCc2cnc[nH]2)cc1` [Compound 177, N-(2-(1H-imidazol-5-yl)ethyl)-4-(tert-butyl)aniline] gave a pEC50 of 5.00 to 6.00.

On to `COc1cc(NC[C@H]2CC[C@H](N)CC2)ccc1N1C[C@@H](C)O[C@H](C)C1` (stereo in doubt) [Compound 496, N-(((1r,4R)-4-aminocyclohexyl)methyl)-4-((2S,6R)-2,6-dimethylmorpholino)-3-methoxyaniline], for which the pEC50 was 6.00 to 7.00.

Molecule `CC(C)(C)c1ccc(NC2CCC(CNc3cn[nH]c3)CC2)cc1` (stereo not shown) [Compound 348, N-((4-((4-(tert-butyl)phenyl)amino)cyclohexyl)methyl)-1H-pyrazol-4-amine] showed a pEC50 of 7.00 to 10.00.

Molecule `Cc1cc(NC2CC3(CC(N)C3)C2)cnc1N1C[C@H](C)O[C@@H](C)C1` (stereo in doubt) [Compound 480, N2-(6-((25,6S)-2,6-dimethylmorpholino)-5-methylpyridin-3-yl)spiro[3.3]heptane-2,6-diamine] gave a pEC50 of 6.00 to 7.00.

As for `CC(C)(C)c1ccc(NC2CCC(N)(CO)CC2)cc1` (single isomer, unassigned) [Compound 213A, (1-amino-4-((4-(tert-butyl)phenyl)amino)cyclohexyl)methanol], the pEC50 is 6.00 to 7.00.

Regarding `Cc1nc(N2CC3CCC2CO3)ccc1NC1CC2(CC(N)C2)C1` (stereo not shown) [Compound 491, N2-(6-(2-oxa-5-azabicyclo[2.2.2]octan-5-yl)-2-methylpyridin-3-yl)spiro[3.3]heptane-2,6-diamine], the pEC50 is 7.00 to 10.00.

Molecule `CC[C@@H]1CN(c2ccc(NC3CC4(CC(N)C4)C3)c(C)n2)C[C@H](C)O1` (stereo partly drawn) [Compound 546, N2-(6-((2R,6S)-2-ethyl-6-methylmorpholino)-2-methylpyridin-3-yl)spiro[3.3]heptane-2,6-diamine] had a pEC50 of 7.00 to 10.00.

For the molecule `CC1CCC(Nc2ccc(C(C)(C)C)cc2)CC1` (stereo not shown) [Compound 334, 4-(tert-butyl)-N-(4-methylcyclohexyl)aniline], the pEC50 is 6.00 to 7.00.

For `CC(C)(C)c1ccc(NC2CCC(NCCO)CC2)cc1` (stereo not shown) [Compound 230, 2-((4-((4-(tert-butyl)phenyl)amino)cyclohexyl)amino)ethan-1-ol], the pEC50 was 7.00 to 10.00.

In the case of `NC(=O)C1CCC(Nc2ccc3cc(N4CCC(C(F)(F)F)CC4)ccc3c2)CC1` (stereo not shown) [Compound 563, 4-((6-(4-(trifluoromethyl)piperidin-1-yl)naphthalen-2-yl)amino)cyclohexane-1-carboxamide], the pEC50 is 7.00 to 10.00.

Molecule `N[C@H]1CC[C@H](CNc2ccc(N3CCC(C(F)(F)F)CC3)cc2)CC1` [Compound 356, N-(((1r,4r)-4-aminocyclohexyl)methyl)-4-(4-(trifluoromethyl)piperidin-1-yl)aniline] gave a pEC50 of 7.00 to 10.00.

For the molecule `CCN1CC(C(=O)NCC2CCC(Nc3ccc(N4CCC(C(F)(F)F)CC4)cc3)CC2)CC1=O` (stereo not shown) [Compound 1, 1-ethyl-5-oxo-N-((4-((4-(4-(trifluoromethyl)piperidin-1-yl)phenyl)amino)cyclohexyl)methyl) pyr rolidine-3-carboxamide], the pEC50 was 7.00 to 10.00.

The molecule `CC(C)(C)c1ccc(NC2CC(N)C2)cc1` (stereo not shown) [Compound 123, N1-(4-(tert-butyl)phenyl)cyclobutane-1,3-diamine] showed a pEC50 of 6.00 to 7.00.

Staying with this assay, now noted: Homo sapiens, HT-1080, 20 h, ferroptosis inducer RSL3, 20 hours, ferroptosis inhibitory activity, Table 3.
In turn, `CCc1nc(N2CC(C)OC(C(F)(F)F)C2)ccc1NC1CC2(CC(N)C2)C1` (stereo not shown) [Compound 659, N2-(2-ethyl-6-(2-methyl-6-(trifluoromethyl)morpholino)pyridin-3-yl)spiro[3.3]heptane-2,6-diamine] showed a pEC50 of 7.00 to 10.00.

The assay is the same for the next values; noted with them: Homo sapiens, ferroptosis inducer RSL3, 20 hours, ferroptosis inhibitory activity, Table 2.
Consider `CCCCN(CCCC)CCNc1ccc(C2CCCCC2)cc1` [Compound 173, N1,N1-dibutyl-N2-(4-cyclohexylphenyl)ethane-1,2-diamine], for which the pEC50 is 6.00 to 7.00.

The assay is the same for the next values; noted with them: ferroptosis inducer RSL3, 20 hours, ferroptosis inhibitory activity, Table 2.
`CC1CN(c2ccc(NC3CC4(CC(N)C4)C3)cc2F)CC(C)N1CC(F)(F)F` (stereo not shown) [Compound 186, N2-(4-(3,5-dimethyl-4-(2,2,2-trifluoroethyl)piperazin-1-yl)-3-fluorophenyl) spiro-[3.3]heptane-2,6-diamine]: the pEC50 was 6.00 to 7.00.
